Experimental data as given in US9814706B2, “Hydrobromide salt of pridopidine” (Teva Pharmaceuticals International GmbH, priority 2011, dated 2017).
Counter-ions that a name gives are not always drawn. Like-named read-outs stand apart in the source and are kept apart here.

Conditions: for hygroscopicity / deliquescence by DVS profile (in words): hydrobromide salt
Protocol: DVS analysis was performed on two of the HCl salts of pridopidine (HCl salt of pridopidine batches A and B). A full two cycle sorption and desorption profile was obtained for a third HCl salt of pridopidine (hydrochloride salt of pridopidine batch C).
An additional run was performed in the mid-eighties relative humidity range in order to indentify the transition point in more detail. (See FIG. 9). […] Dynamic vapour sorption (DVS) measurements were conducted using a Q5000 SA from TA instruments.
Prior to the first sorption cycle the sample was equilibrated at 20% RH and the initial weight recorded. Samples were analyzed in an aluminium pan. Humidity was brought down to 0% RH and the sample dried until the weight had stabilized within a given limit. The temperature was held constant at 25° C. Maximum step time was 720 min. Gas flow was 200 cm^3/min.

Row | weight gain at 90% relative humidity (DVS) (90% RH step, first sorption cycle) | state of specimen at the end of the DVS cycle (additional run with smaller steps in the mid-eighties RH range (80-90-80%)) | weight gained between 0 and 95% RH (DVS), lost again during desorption (0-95% RH, two sorption/desorption cycles, 25° C.) | hygroscopicity / deliquescence by DVS profile (in words) (0-95% RH) | hygroscopicity / deliquescence by DVS profile (in words) (0-95% RH, listed as NS30016-HBr salt) | weight gained at the 95% relative humidity (RH) level (DVS) (95% RH, 25° C.) | SMILES
1 | approximately 80% | completely dissolved | – | – | – | – | CCCN1CCC(c2cccc(S(C)(=O)=O)c2)CC1 [hydrochloride salt of pridopidine, hydrochloride salt of 4-(3-methanesulfonyl-phenyl)-1-propyl-piperidine, reference compound]
2 | – | – | approximately 0.15% | non-hygroscopic and non-deliquescent | non-hygroscopic | less than 1% | Br.CCCN1CCC(c2cccc(S(C)(=O)=O)c2)CC1 [Pridopidine hydrobromide, 4-(3-methanesulfonyl-phenyl)-1-propyl-piperidine hydrobromide salt]
